This is an account of results in ChEMBL document CHEMBL5055680, “AMPK inhibitor BML-275 induces neuroprotection through decreasing cyt c and AIF expression after transient brain ischemia” (2021).

Assay [1] deals with Mus musculus. Description: Neuroprotective activity in C57BL/6 mouse model of transient middle cerebral artery occlusion induced cerebral ischemia reperfusion injury assessed as inhibition of apoptosis by measuring decrease in TUNEL positive nuclei in cortex at 10 mg/kg, ip measured after 12 hrs by TUNEL staining based assay (reference value: 53.64 +/- 7.63). Format: functional.

Assay [2] can be described thus: Downregulation of cyt-c expression in cortex of C57BL/6 mouse model of transient middle cerebral artery occlusion induced cerebral ischemia reperfusion injury measured after 24 hrs of reperfusion by immunohistochemistry. Format: functional.
For assay [3], the system named is Mus musculus. The assay is described as follows: Neuroprotective activity in C57BL/6 mouse model of transient middle cerebral artery occlusion induced cerebral ischemia reperfusion injury assessed reduction in infarct size at 10 mg/kg, ip measured after 24 hrs by TTC staining based assay. Format: functional, organism-based.
Assay [4] deals with Mus musculus. The assay is described as follows: Neuroprotective activity in C57BL/6 mouse model of transient middle cerebral artery occlusion induced cerebral ischemia reperfusion injury assessed as change in infract volume at 10 mg/kg, ip measured after 24 hrs by TTC staining based assay (reference value: 21.86 +/- 4.65 %). Format: functional.
In assay [5] the test system is Mus musculus. The assay is described as follows: Neuroprotective activity in C57BL/6 mouse model of transient middle cerebral artery occlusion induced cerebral ischemia reperfusion injury assessed as neurological deficits at 10 mg/kg, ip measured 24 hrs after reperfusion by […] (reference value: 5.86 +/- 0.64). Format: functional.
For assay [6], the species on record is Mus musculus. The assay is described as follows: Neuroprotective activity in C57BL/6 mouse model of transient middle cerebral artery occlusion induced cerebral ischemia reperfusion injury assessed as neuronal apoptosis by measuring increase in caspase-3 positive cells incubated for 1 hrs by immunohistochemistry. Format: functional, organism-based.
The species named for assay [7] is Mus musculus. Description: Neuroprotective activity in C57BL/6 mouse model of transient middle cerebral artery occlusion induced cerebral ischemia reperfusion injury assessed as neuronal apoptosis by measuring increase in TUNEL positive nuclei measured after 12 hrs by TUNEL staining based assay. Format: functional, organism-based.
Assay [8] concerns Mus musculus. The assay is described as follows: Neuroprotective activity in C57BL/6 mouse model of transient middle cerebral artery occlusion induced cerebral ischemia reperfusion injury assessed as inhibition of apoptosis by measuring decrease in caspase-3 positive cells in cortex at 10 mg/kg, ip incubated for 1 hrs by immunohistochemistry (reference value: 7.58 +/- 2.15). Format: functional.

The test system of assay [9] is Mus musculus. Description: Neuroprotective activity in C57BL/6 mouse model of transient middle cerebral artery occlusion induced cerebral ischemia reperfusion injury assessed as inhibition of apoptosis by measuring decrease in TUNEL positive nuclei in hippocampus at 10 mg/kg, ip measured after 12 hrs by TUNEL staining based assay (reference value: 55.42 +/- 4.86). Format: functional.

A short description of assay [10]: Downregulation of cyt-c expression in hippocampus of C57BL/6 mouse model of transient middle cerebral artery occlusion induced cerebral ischemia reperfusion injury measured after 24 hrs of reperfusion by immunohistochemistry. Format: functional.
Assay [11] in a line: Downregulation of cyt-c expression in cortex of C57BL/6 mouse model of transient middle cerebral artery occlusion induced cerebral ischemia reperfusion injury at 10 mg/kg, ip measured after 24 hrs of reperfusion by immunohistochemistry (reference value: 15.58 +/- 2.34). Format: functional.
A short description of assay [12]: Downregulation of cyt-c expression in hippocampus of C57BL/6 mouse model of transient middle cerebral artery occlusion induced cerebral ischemia reperfusion injury at 10 mg/kg, ip measured after 24 hrs of reperfusion by immunohistochemistry (reference value: 20.52+/- 2.08). Format: functional.
Assay [13] is described as follows: Downregulation of AIF expression in cortex of C57BL/6 mouse model of transient middle cerebral artery occlusion induced cerebral ischemia reperfusion injury assessed as AIP-posotive cells in ischemic cortex at 10 mg/kg, ip measured after 24 hrs of reperfusion by immunohistochemistry (reference value: 46.7 +/- 3.45). Format: functional.
The nature of assay [14]: Downregulation of AIF expression […] of C57BL/6 mouse model of transient middle cerebral artery occlusion induced cerebral ischemia reperfusion injury assessed as AIP-posotive cells in hippocampus at 10 mg/kg, ip measured after 24 hrs of reperfusion by immunohistochemistry (reference value: 27.35 +/- 3.67). Format: functional.

The structures appear in SMILES notation. Activity calls are given as the source filed them. No cut-off for these calls is given here.

With `c1cc(-c2cnn3cc(-c4ccc(OCCN5CCCCC5)cc4)cnc23)ccn1` [DORSOMORPHIN], the Activity worked out at 53.64 in assay [1]; 42.56% in assay [4]; 9.26 in [5]; 15.63 in [8]; 55.42 in [9]. The “fold change (FC)” value worked out at 45.32 in [2]; 52.08 in [10]; 45.32 in assay [11]; 52.08 in assay [12]; 26.36 in assay [13]; 13.17 in assay [14]. For the same compound, the result in assay [3], in assay [6] and in [7] was Active.
